For data set [1], the target named is T1, α4β1 integrin (Homo sapiens, UniProt P05556+P13612).
T1 construct: Jurkat E6.1 cell line, which endogenously expresses α4β1 integrin; host or cells: Jurkat E6.1
In words: α4β1 integrin-mediated Jurkat E6.1 cell adhesion to FN. It is filed as cell-based. The following applies: Jurkat E6.1 cell adhesion to FN (10 μg/mL); antag. = reduced cell adhesion; mean ± SD. The method, then: To investigate the ability of the new peptides to modulate integrin-mediated cell adhesion, we employed cell adhesion assays using a Jurkat E6.1 cell line, which endogenously expresses α4β1 integrin and the natural ligand FN. […] On the contrary, ligands able to increase cell adhesion are defined as agonists.
(§1) The assays were performed as previously described. Briefly, regarding adhesion assays on Jurkat E6.1 or HL-60 cells, black 96-well plates (Corning Costar) were coated overnight at 4 °C with FN or Fg (10 μg/mL) or VCAM-1 (2 μg/mL) in order to investigate α4β1 integrin-mediated cell adhesion. To avoid any kind of unspecific binding, plates were incubated with 100 μL/well of blocking solution (1% BSA in HBSS) for 30 min at 37 °C. Cells were counted, stained with the CellTracker green CMFDA (12.5 μM, 30 min at 37 °C, Life Technologies Italia, Milan, Italy) and after three washes, were preincubated with increasing concentrations of new compounds (10^−10–10^−4 M) or with the vehicle (methanol) for 30 min at 37 °C.
(§2) Then, cells were plated (500,000/well) on coated wells and incubated for 30 min at 37 °C. Afterwards nonadherent cells were removed via washing with a blocking solution, and the remaining adhered cells were lysed with 0.5% Triton X-100 in PBS (30 min at 4 °C). Green fluorescence was measured (Ex485 nm/Em535 nm) using an EnSpire Multimode Plate Reader (PerkinElmer, Waltham, MA, USA).
(§3) In both types of adhesion assay, the number of adherent cells was determined via comparison with a standard curve made in the same plate. Experiments were carried out in quadruplicate and repeated at least three times. Data analysis and EC50 or IC50 values were calculated using GraphPad Prism 9.5.1 (GraphPad Software, San Diego, CA, USA).

Data set [2] has as its target T1, α4β1 integrin. Nature of the data set: HUTS-21 monoclonal antibody binding (α4β1 integrin conformation), flow cytometry. It is filed as cell-based. The following applies: Jurkat E6.1 cells; compounds 1–100 nM; FN 10 µg/mL; versus vehicle. From the text:
Integrin functions are regulated by a number of conformational changes in the protein itself. […] Conformational changes can be evaluated by using conformationally sensitive antibodies which specifically recognize epitopes exposed only in a defined structural conformation. To better depict peptidomimetics–α4β1 integrin interactions, we employed PE-conjugated HUTS-21 mAb that recognizes an epitope mapped to the hybrid domain of the β1 subunit.
Conversely, antagonists 3, 8, and 13, although binding to α4β1 integrin as previously shown, were not able to induce any conformational rearrangement, showing very low binding of HUTS-21 mAb.
Flow cytometry analysis was performed as previously described, with the following modifications. Jurkat E6.1 cells were resuspended in 1% BSA in HBSS (50,000 cells/sample); then, FN (10 μg/mL) and two concentrations of the best peptidomimetics (100–1 nM) were added to the cells for 30 min. Thereafter, phycoerythrin (PE)-conjugated, conformational-sensitive HUTS-21 mAb (PE mouse anti-human CD29 antibody, Becton Dickinson Italia, Milan, Italy) (20 μL/sample) was added for 45 min at room temperature; after two washes, Jurkat E6.1 cells were suspended in PBS, and 10,000 cells/sample were acquired in a Guava®EasyCyte Flow Cytometer. The data are presented as the mean fluorescence intensity (MFI). Data were normalized with the relative fluorescence for nonspecific binding evaluated by exposing the cells to an isotype control mAb set to 0.

The target in data set [3] is T1, α4β1 integrin. Nature of the data set: LDV-FITC competitive binding on intact Jurkat E6.1 cells. The method, then: The assays were performed as previously described with the following modifications. Jurkat E6.1 cells were resuspended (50,000 cells/sample) in 0.1% BSA in a HEPES buffer (NaCl 110 mM; KCl 10 mM; Glucose 10 mM; MgCl2 1 mM; CaCl2 1.5 mM; HEPES 30 mM; pH 7.4) and pre-incubated with different concentrations (10^−11–10^−5 M) of compounds for 20–30 min at RT. Then, LDV-FITC (5 µM) was added to the cells, and they were incubated in the dark for an additional 30 min at RT. At the end of the incubation with LDV-FITC, cells were washed with 0.1% BSA in a HEPES buffer. The FITC fluorescence intensity was measured using an EnSpire Multimode Plate Reader (PerkinElmer, Waltham, MA, USA). The data were plotted as LDV-FITC specific bindings versus the concentration of the competitor, and the data were fitted to a one-site competition equation; the equilibrium dissociation constant Ki was calculated from the IC50 using the Cheng–Prusoff equation.

For data set [4], the target named is T1, α4β1 integrin. Nature of the data set: α4β1 integrin-mediated Jurkat cell adhesion to VCAM-1. The note with it: Jurkat cell adhesion to VCAM-1 (2 μg/mL); antag. = reduced cell adhesion; mean ± SD. It is filed as cell-based. The method, then:
(§4) To this purpose, the ability of the best peptidomimetics to modulate cell adhesion mediated by integrins other than α4β1 was evaluated in HL60 cells, mainly expressing the leukocyte integrin αMβ2, and on K562 cells, mainly expressing α5β1, which shares a β1 subunit with the heterodimer α4β1. […] In contrast, 13 was a moderate promoter of cell adhesion mediated by αMβ2 integrin, behaving as an agonist. Regarding α5β1 integrin, none of the peptidomimetics employed were able to modulate K562 cell adhesion, thus being shown to be completely ineffective toward α5β1 integrin. The reference compound DS-70 was ineffective toward both αMβ2 and α5β1 integrins under the same experimental conditions (Table 3).
as §1, §2, §3

For data set [5], the target named is T2, αMβ2 integrin (Homo sapiens, UniProt P05107+P11215).
T2 construct: HL60 cells, mainly expressing the leukocyte integrin αMβ2; host or cells: HL60 (PMA-treated)
Nature of the data set: αMβ2 integrin-mediated HL60 cell adhesion to Fg. It is filed as cell-based. The following applies: HL60 cell adhesion to Fg (10 μg/mL); antagonists; mean ± SD. The method, then:
as §4, §1, §2, §3
Cell culture. Jurkat E6.1 (expressing both α4β1 and αLβ2 integrin), K562 (expressing α5β1 integrin) and HL60 (expressing α Mβ2 integrin) cell lines were purchased from ATCC (Rockville, MD, USA); these cells were routinely cultured in RPMI-1640 (Life Technologies) supplemented with 1% glutamine and 10% fetal bovine serum (FBS). Cells were grown at 37 °C under 5% CO 2 humidified atmosphere. […]

Data set [6] concerns the target T3, α5β1 integrin (Homo sapiens, UniProt P05556+P08648).
T3 construct: K562 cells, mainly expressing α5β1, which shares a β1 subunit with the heterodimer α4β1; host or cells: K562 (PMA-treated)
Nature of the data set: α5β1 integrin-mediated K562 cell adhesion to FN. The note with it: K562 cell adhesion to FN (10 μg/mL). It is filed as cell-based. As to the method: as §4
For adhesion assays mediated by α5β1 integrin, K562 cells were pre-treated with PMA (64.85 nM, Merck Life Science, Milan, Italy) for 48 h to enhance α5β1 integrin expression. 96-well plates were coated via passive adsorption with FN (10 μg/mL) overnight at 4 °C; then, the following day, plates were blocked by adding 100 μL/well of a blocking solution (1% BSA in PBS) and incubated for 1 h at 37 °C. K562 cells were counted and preincubated with various concentrations (10^−10–10^−4 M) of the peptides or with the vehicle for 30 min at RT. Then, K562 cells were plated (50,000 cells/well) and incubated at RT for 1 h. The wells were then washed three times with 1% BSA in PBS, and 50 μL of hexosaminidase substrate was added and incubated at RT for 1 h. After the addition of 100 μL of stopping solution (50 mM glycine and 5 mM EDTA, pH 10.4), plates were read at 405 nm in an EnSpire Multimode Plate Reader.
as §3
Cell culture. Jurkat E6.1 (expressing both α4β1 and αLβ2 integrin), K562 (expressing α5β1 integrin) and HL60 (expressing α Mβ2 integrin) cell lines were purchased from ATCC (Rockville, MD, USA); these cells were routinely cultured in RPMI-1640 (Life Technologies) supplemented with 1% glutamine and 10% fetal bovine serum (FBS). Cells were grown at 37 °C under 5% CO 2 humidified atmosphere. 40 h before the adhesion assays, K562 and HL60 cells were treated with 25 nM or 40 nM phorbol 12 -myristate 13-acetate (PMA; Sigma-Aldrich), respectively, to induced cell differentiation and to increased α5β1 or αMβ2 integrin expression on cell surface (Baiula et al., 2016).
Cell adhesion assays . Concentration-response curves, obtained from cell adhesion assays performed in […]
Figure S1. […]

Details of data set [7]: method as in PMID 30051467, PMID 33584300. The following applies: cited from earlier work.
Details of data set [8]: method as in PMID 17523052, PMID 11682211. The following applies: plasma; heparinized blood; homogenates of rat liver, lungs, and intestines; cited from earlier work.
Details of data set [9]: method as in PMID 12086484. The note with it: cited from earlier work.
The subject of data set [10] is antigen-induced airway hyper-responsiveness. Details: method as in PMID 10934094. The following applies: allergic sheep; cited from earlier work.

The source of these data is publication PMC10253817, “Design, Pharmacological Characterization, and Molecular Docking of Minimalist Peptidomimetic Antagonists of α4β1 Integrin” (International Journal of Molecular Sciences, 2023).

In general, IC50 refers to the midpoint of a concentration-inhibition curve. A low value points to greater potency in that assay. A word on the Ki: it is the dissociation constant of the complex between target and ligand, obtained from inhibition or displacement. Read a low Ki as higher affinity.

*1 amine or outer side, *2 acyl side, *3 side chain or, on linkers, in order; H or OH if unused. Where a SMILES comes first, the peptide text is derived from it. [ ]: non-standard residue; d: D form. The star is where a group is joined. X1 = O=C(Cc1ccc(N[*:1])cc1)[*:2]; NH(2-Me-phenyl) = Cc1ccccc1N*; CO = O=C([*:1])[*:2]

T1 sequence (P13612 34-1032): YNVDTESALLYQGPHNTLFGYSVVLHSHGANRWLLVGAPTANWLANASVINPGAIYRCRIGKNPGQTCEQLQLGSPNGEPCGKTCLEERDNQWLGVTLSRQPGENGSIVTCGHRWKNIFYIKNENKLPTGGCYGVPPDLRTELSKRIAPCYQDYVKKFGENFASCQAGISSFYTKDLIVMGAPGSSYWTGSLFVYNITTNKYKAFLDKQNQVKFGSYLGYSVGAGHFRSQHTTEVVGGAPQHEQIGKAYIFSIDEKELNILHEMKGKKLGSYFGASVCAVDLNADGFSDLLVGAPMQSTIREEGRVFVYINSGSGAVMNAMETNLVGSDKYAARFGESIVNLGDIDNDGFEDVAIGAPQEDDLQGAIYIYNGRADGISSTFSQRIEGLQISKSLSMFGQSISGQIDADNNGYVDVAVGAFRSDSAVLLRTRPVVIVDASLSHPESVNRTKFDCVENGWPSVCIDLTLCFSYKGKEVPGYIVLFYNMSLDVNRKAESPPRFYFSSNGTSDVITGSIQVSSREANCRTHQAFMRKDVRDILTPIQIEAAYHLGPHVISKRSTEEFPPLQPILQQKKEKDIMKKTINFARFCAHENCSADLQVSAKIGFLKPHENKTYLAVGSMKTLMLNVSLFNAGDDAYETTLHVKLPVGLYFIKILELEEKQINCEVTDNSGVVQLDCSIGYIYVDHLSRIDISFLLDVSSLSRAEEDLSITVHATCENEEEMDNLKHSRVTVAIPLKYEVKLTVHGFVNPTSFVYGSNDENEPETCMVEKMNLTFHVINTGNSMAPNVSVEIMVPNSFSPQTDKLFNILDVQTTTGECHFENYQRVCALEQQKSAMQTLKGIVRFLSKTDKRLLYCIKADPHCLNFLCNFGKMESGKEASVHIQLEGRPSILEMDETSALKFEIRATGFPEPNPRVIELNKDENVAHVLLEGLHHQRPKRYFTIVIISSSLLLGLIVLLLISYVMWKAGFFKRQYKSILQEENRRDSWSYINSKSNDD
T1 sequence (P05556 21-798): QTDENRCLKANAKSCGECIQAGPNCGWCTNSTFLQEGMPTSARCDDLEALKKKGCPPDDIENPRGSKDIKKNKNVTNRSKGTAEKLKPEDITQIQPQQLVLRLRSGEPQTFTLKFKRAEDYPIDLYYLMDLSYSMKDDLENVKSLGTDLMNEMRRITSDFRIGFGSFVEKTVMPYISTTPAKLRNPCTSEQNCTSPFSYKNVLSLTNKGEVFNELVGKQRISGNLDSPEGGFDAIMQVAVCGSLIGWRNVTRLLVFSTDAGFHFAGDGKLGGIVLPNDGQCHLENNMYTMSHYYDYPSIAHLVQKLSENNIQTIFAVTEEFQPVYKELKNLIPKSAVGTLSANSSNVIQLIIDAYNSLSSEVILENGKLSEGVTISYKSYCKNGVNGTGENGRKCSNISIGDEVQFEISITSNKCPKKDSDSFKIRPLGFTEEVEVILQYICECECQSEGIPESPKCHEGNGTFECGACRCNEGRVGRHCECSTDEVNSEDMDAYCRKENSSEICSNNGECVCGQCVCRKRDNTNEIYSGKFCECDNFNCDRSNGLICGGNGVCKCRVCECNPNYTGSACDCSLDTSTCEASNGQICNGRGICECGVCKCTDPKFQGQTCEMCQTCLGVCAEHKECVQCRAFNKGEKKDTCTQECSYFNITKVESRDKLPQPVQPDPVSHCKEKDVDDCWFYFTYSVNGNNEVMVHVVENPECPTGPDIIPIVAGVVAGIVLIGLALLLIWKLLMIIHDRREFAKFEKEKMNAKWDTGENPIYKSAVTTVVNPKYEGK
T2 sequence (P05107 23-769, other chains not shown): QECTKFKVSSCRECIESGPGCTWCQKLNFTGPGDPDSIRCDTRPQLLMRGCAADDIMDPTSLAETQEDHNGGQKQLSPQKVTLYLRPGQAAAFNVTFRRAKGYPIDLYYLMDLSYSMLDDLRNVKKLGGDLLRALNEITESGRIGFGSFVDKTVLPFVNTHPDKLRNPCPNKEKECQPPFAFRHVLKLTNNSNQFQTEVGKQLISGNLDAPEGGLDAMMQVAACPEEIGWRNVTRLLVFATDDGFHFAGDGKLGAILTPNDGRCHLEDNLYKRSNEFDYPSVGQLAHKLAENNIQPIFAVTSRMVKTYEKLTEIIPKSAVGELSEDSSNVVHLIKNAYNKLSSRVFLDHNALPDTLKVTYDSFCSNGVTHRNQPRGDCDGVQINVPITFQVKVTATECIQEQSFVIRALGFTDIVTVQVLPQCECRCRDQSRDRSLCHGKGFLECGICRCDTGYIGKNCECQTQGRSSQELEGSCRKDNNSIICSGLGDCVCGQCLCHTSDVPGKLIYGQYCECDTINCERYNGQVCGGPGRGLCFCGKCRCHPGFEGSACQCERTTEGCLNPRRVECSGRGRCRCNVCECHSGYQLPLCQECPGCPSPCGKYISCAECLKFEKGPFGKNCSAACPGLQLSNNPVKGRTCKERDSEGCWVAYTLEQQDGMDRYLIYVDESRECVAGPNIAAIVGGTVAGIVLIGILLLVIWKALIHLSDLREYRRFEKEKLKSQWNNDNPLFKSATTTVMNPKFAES
T3 sequence (P08648 42-894 limits assumed): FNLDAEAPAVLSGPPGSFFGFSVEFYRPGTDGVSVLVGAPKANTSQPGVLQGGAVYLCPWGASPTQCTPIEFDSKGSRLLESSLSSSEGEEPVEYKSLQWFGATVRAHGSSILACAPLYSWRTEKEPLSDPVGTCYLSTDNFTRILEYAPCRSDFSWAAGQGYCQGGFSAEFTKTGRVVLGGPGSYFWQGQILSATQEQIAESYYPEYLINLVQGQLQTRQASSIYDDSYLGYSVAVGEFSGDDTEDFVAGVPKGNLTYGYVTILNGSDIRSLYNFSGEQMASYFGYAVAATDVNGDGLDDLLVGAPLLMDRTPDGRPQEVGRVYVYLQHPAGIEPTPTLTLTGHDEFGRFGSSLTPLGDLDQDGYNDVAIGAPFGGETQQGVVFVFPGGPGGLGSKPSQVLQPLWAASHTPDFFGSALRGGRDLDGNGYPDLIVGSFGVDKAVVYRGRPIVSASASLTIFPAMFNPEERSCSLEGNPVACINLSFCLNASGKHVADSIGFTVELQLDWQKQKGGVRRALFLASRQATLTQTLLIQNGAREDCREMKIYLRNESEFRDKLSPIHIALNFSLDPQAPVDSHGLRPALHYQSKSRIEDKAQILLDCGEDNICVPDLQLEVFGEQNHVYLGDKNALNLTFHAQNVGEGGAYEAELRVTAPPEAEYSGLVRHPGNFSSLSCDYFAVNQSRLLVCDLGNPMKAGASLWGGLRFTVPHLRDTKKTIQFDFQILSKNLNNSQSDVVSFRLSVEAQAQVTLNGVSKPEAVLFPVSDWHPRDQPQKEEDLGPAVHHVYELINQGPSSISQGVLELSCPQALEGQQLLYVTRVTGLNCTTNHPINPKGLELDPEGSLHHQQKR
T3 sequence (P08648 895-1049 partner limits assumed): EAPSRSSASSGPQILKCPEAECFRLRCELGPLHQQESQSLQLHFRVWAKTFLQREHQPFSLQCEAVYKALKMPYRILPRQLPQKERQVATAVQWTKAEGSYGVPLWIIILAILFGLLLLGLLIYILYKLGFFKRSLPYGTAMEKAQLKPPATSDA
T3 sequence (P05556 21-798): as the sequence (P05556 21-798) above

In data set [1], `Cc1ccccc1NC(=O)Nc1ccc(CNC(=O)C[C@H](C)NC(=O)CC(=O)O)cc1` [compound 14] gave a half-inhibitory concentration (IC50) of more than 5 µM.
Turning to `CCCNC(=O)[C@H](CC(=O)NCc1ccc(NC(=O)Nc2ccccc2C)cc1)NC(=O)CC(=O)O` [compound 15], in data set [1], the IC50 was more than 5 µM.
Molecule `CCCNC(=O)[C@@H](CC(=O)NCc1ccc(NC(=O)Nc2ccccc2C)cc1)NC(=O)CC(=O)O` [compound 16] returned an IC50 in [1] of more than 5 µM.
Turning to fibronectin [FN], the “binding of HUTS-21 mAb (MFI)” value in data set [2] is recorded as “increased binding of the HUTS-21 mAb”.
In the case of `Cc1ccccc1NC(=O)Nc1ccc(CC(=O)NC[C@H](C)C(=O)NCC(=O)O)cc1` [compound 1], the “receptor affinity (in words)” value in [3] (α4β1 integrin) is listed as “complete lack of receptor affinity”.
`CC(=O)N[C@H](CNC(=O)CC(=O)O)C(=O)NCc1ccc(NC(=O)Nc2ccccc2C)cc1` [compound 12] came in with an IC50 in [1] of more than 5 µM.
`CC(=O)N[C@@H](CNC(=O)CC(=O)O)C(=O)NCc1ccc(NC(=O)Nc2ccccc2C)cc1` [compound 11]: the IC50 in [1] was more than 5 µM.
Consider `Cc1ccccc1NC(=O)Nc1ccc(CNC(=O)[C@@H](C)CNC(=O)CC(=O)O)cc1` [compound 10], for which, in data set [1], the IC50 is more than 5 µM.
Same read-out and setting: next, `Cc1ccccc1NC(=O)Nc1ccc(CNC(=O)[C@H](C)CNC(=O)CC(=O)O)cc1` [compound 9]: more than 5 µM; `Cc1ccccc1NC(=O)Nc1ccc(CNC(=O)[C@H]2CCN(C(=O)CC(=O)O)C2)cc1` [DS-23, reference compound]: 0.051 µM.
As for `Cc1ccccc1NC(=O)Nc1ccc(CC(=O)N2CC[C@H](C(=O)NCC(=O)O)C2)cc1` [DS-70, MPUPA-β^2Pro-Gly, reference compound], the IC50 in data set [1] is 0.0043 µM; in data set [4], 5.04 nM; in data set [5] it was more than 5 µM; in [6], more than 5 µM. Moreover, affinity in data set [3] (intact Jurkat E6.1 cells vs. LDV-FITC, mean ± SD) was put at a Ki of 0.94 ± 0.32 nM. Besides, the “stability in mouse serum” value in data set [7] is given as “noteworthy stability”.
For the molecule `Cc1ccccc1NC(=O)Nc1ccc(CC(=O)N[C@@H](CC(C)C)C(=O)N[C@@H](CC(=O)O)C(=O)N[C@H](C(=O)N2CCC[C@H]2C(=O)O)C(C)C)cc1` [BIO1211, MPUPA-Leu-Asp-Val-ProOH] ({NH(2-Me-phenyl)-CO}-[X1]LDVP-OH), the “stability in a biological environment” value in data set [8] is “scarcely stable”. The clearance in vivo result in data set [9] was “rapid clearance”. For the same molecule, in [10], the antigen-induced airway hyper-responsiveness entry is reported as “capable of inhibiting”.
